Results published in patent publication US20260132165A1, “MODIFIED NUCLEOSIDE ANALOGUE AND USE THEREOF, AND NUCLEOSIDE ANALOGUE-CONTAINING DOUBLE-STRANDED OLIGONUCLEOTIDE AND USE THEREOF” (RIGERNA THERAPEUTICS (BEIJING) CO., LTD., priority 2023, published 2026).
Strand notation (5' to 3'): a small letter for the sugar, then the base; units joined by * are phosphorothioate-linked, units joined directly phosphodiester-linked; [ ] holds rarer units or linkages, { } end groups; capitals alone tell only the bases. m = 2'-O-methyl; f = 2'-fluoro

Legend:
SOD1 = assay: Test Example 2: inhibitory activity of NM031 conjugated siRNA on SOD1 by intrathecal administration to mice; type: in vivo, C57BL/6j mice; settings: intrathecal, 800 μg per mouse, D9
Description: 6-8 Week-old C57BL/6j mice were randomly grouped into 4 groups by body weight. PBS group was dosed with siRNA-free PBS solution, RX899001 group was dosed with siRNA compound RX899001 without vector conjugation, RZ899001 group was dosed with siRNA RZ899001 (the sense strand with the Uhd conjugation at Position 4) prepared in Example 1, and RZ899008 was dosed with siRNA RZ899008 (the sense strand with the NM031 conjugation at Position 4) prepared in Example 1. Mices in each group were anesthetized with isoflurane. After anesthetization, lumbar region thereof was sprayed wet with 75% disinfecting alcohol. 10 μL (concentration […]) of siRNA drug containing PBS solvent was sucked with an insulin injection needle, the mouse lumbar region was pinched with the left-hand index finger and thumb, patella crest was propped against, and needle was held by the right hand. The needle was bent by forceps in advance, wherein the needle was first bent in the middle by 80° to 90°, then a front half part of the needle was bent in half, and the whole needle was bent in an are shape of about 60° to 90°. Mouse abdominal region was padded with an article with a thickness of about 2 cm. The needle was inserted from a joint of lumbar spines L5 and L6 of mice, and when inserting the needle, the hand was slightly inclined forwards to insert the needle. […] After completion of the injection, the needle was slowly withdrawn at uniform velocity. The administration dose to each mouse in RX899001 group, RZ899001 group and RZ899008 group was 800 μg, a total volume injected was 10 μL, and the PBS group was administered with the same volume of siRNA-free PBS solution. After the animals woke up, the animals were returned back to the animal feeding room and further fed. The day of administration was recorded as first day (D1), and the mice were sacrificed on ninth day (D9). Lumbar spine, thoracic spine and cerebellum were respectively taken and stored in the RNAlater.
RNA extraction: an appropriate amount of lumbar spine, thoracic spine and cerebellum samples were respectively taken out from the RNAlater, and smashed for 60 s in Tissuelyser type II full-automatic tissue homogenizer, and total RNAs of various tissue samples were extracted using the full-automatic nucleic acid extraction instrument and the nucleic acid extraction kit from Zhejiang Hanwei Science and Technology Co. Ltd. according to methods described in instructions. Reverse transcription reaction: 1 μg of the extracted total RNAs of various tissue samples were respectively taken, and configured into 20 μL of reverse transcription system according to a method described in kit instructions by using a reverse transcription kit (Reverse Transcription System, A3500) from Promega Corporation and selecting Oligo (dT)15 reverse transcription primers, and the reverse transcription reaction was completed. After the reaction was ended, 80 μL of RNase-Free water was added into the reverse transcription system to provide cDNA solution for Real-time PCR detection.
Real-time PCR detection: 20 μL of Real-time PCR reaction system per PCR detection well was configured according to a method described in kit instructions using SYBR™ Select Master Mix (Catalog number: 4472908) reagent from ABI company. Each detection system contained 5 μL of cDNA template obtained from the above reverse transcription reaction, 10 μL of SYBR™ Select Master Mix, 0.5 μL of 10 μM upstream primers, 0.5 μL of 10 μM downstream primers (see TABLE 5 for primer information), and 4 μL of RNase-Free H2O. The configured reaction system was subjected to Real-time PCR amplification on ABI StepOnePlus PCR instrument by a three-step method, wherein an amplification procedure was pre-denaturation at 95° C. for 10 min, then denaturation at 95° C. for 30 s, annealing at 60° C. for 30 s, and extension at 72° C. for 30 s; and processes of denaturation, annealing, and extension were repeated for 40 cycles. […]

target gene SOD1 = assay: Test Example 3: inhibitory activity of lipid conjugated siRNA sequences on SOD1 by lateral ventricle administration to mice; type: in vivo, C57BL/6j mice; settings: 200 μg per mouse, D5
Description: 6-8 Week-old C57BL/6j mice were randomly grouped by body weight. Mice in each group were administered with siRNA by lateral ventricle administration, with an administration dose per mouse depending on a specific test. Taking Bregma in mouse brain as point 0 (origin), coordinates of right ventricle were found using the cerebral stereotaxic apparatus and position was marked on surface of skull (position of lateral ventricle was AP (anteroposterior, bregma anterior and posterior): −0.58 mm, ML (mediolateral, left and right of middle raphe): −1.2 mm, DV (dorsoventral, up and down cerebral dura mater plane): −2.2 mm). A dental electric drill was used to drill in the skull above a position of interest, and then medicament was injected into the lateral ventricle by a micro-dosing pump, wherein a total injection volume was 5 μL, and injection duration was 10 min. Needle was retained for 5 min after completion of injection, and then slowly withdrawn. Afterwards, needle hole was sealed with biomedical glue, and then head skin was adhered. After animals woke up, the animals were returned back to animal house and further fed. PBS control group was administered with the same volume of siRNA-free PBS solution. The day of administration was recorded as 0 day (D0), and the mice were sacrificed at observation point after the administration. Different parts of brain region were respectively taken and stored in the RNAlater.
RNA extraction: the above tissue samples were taken out from the RNAlater, and smashed for 60 s in Tissuelyser type II full-automatic tissue homogenizer, and total RNAs of various tissue samples were extracted using the full-automatic nucleic acid extraction instrument and the nucleic acid extraction kit from Zhejiang Hanwei Science and Technology Co. Ltd. according to methods described in instructions.
Reverse transcription reaction: 1 μg of the extracted total RNAs of the tissue samples were taken, and configured into 20 μL of reverse transcription system according to a method described in kit instructions by using a reverse transcription kit (Reverse Transcription System, A3500) from Promega Corporation and selecting Oligo (dT)15 reverse transcription primers, and the reverse transcription reaction was completed. After the reaction was ended, 80 μL of RNase-Free water was added into the reverse transcription system to provide cDNA solution for Real-time PCR detection.
Real-time PCR detection: 20 μL of Real-time PCR reaction system per PCR detection well was configured according to a method described in kit instructions using SYBR™ Select Master Mix (Catalog number: 4472908) reagent from ABI company. Each detection system contained 5 μL of cDNA template obtained from the above reverse transcription reaction, 10 μL of SYBR™ Select Master Mix, 0.5 μL of 10 μM upstream primers, 0.5 μL of 10 μM downstream primers, and 4 μL of RNase-Free H2O. The configured reaction system was subjected to Real-time PCR amplification on ABI StepOnePlus PCR instrument by a three-step method, wherein an amplification procedure was pre-denaturation at 95° C. for 10 min, then denaturation at 95° C. for 30 s, annealing at 60° C. for 30 s, and extension at 72° C. for 30 s; and processes of denaturation, annealing, and extension were repeated for 40 cycles. Gene expression differences were calculated by the ΔΔCt method after completion of the procedure.
In the real-time fluorescence quantitative PCR method, relative quantitative calculation of remaining expression level and inhibition rate of gene mRNA of interest in various test groups was performed by the ΔΔCt method, and the calculation method is as follows: […]

Substance	Cerebellum Mean value of inhibition rate % (SOD1) [%]	Lumbar spine Mean value of inhibition rate % (SOD1) [%]	Thoracic spine Mean value of inhibition rate % (SOD1) [%]	Cerebellum Mean value of inhibition rate % (target gene SOD1) [%]	Cortex Mean value of inhibition rate % (target gene SOD1) [%]	Hippocampus Mean value of inhibition rate % (target gene SOD1) [%]
RX899001: siRNA compound without vector conjugation, SOD1 sequence; sense SEQ ID NO: 1, antisense SEQ ID NO: 2 (sense mU*mU*mUmUmAmAfUfCfCmUmCmAmCmUmCmUmAmAmA; antisense mU*fU*mUmAmGfAmGmUmGmAmGmGmAfUmUfAmAmAmA*mU*mG) [reference compound]	14.01	7.54	41.98			
RZ899001: control siRNA, the sense strand with the Uhd conjugation at Position 4; SEQ ID NO: 4 / 2 (sense UUUNAAUCCUCACUCUAAA; antisense UUUAGAGUGAGGAUUAAAAUG; Uhd conjugate at sense position 4; modified_base 1..2 OTHER; 2'-methoxy and 5'-thiophosphate modified nucleotides; modified_base 3 OTHER; 2'-methoxy modified nucleotide; modified_base 4 OTHER; n is the synthetic nucleotide analog Uhd as described in the disclosure.; modified_base 5..6 OTHER; 2'-methoxy modified nucleotides; modified_base 7..9 OTHER; 2'-fluoro modified nucleotides; modified_base 10..19 OTHER; 2'-methoxy modified nuc; modified_base 1 OTHER; 2'-methoxy and 5'-thiophosphate modified nucleotide; modified_base 2 OTHER; 2'-fluoro and 5'-thiophosphate modified nucleotide; …) [reference compound]	60.22	64.13	60.27			
RZ899052: siRNA, the sense strand with the NM058 conjugation at Position 5; SEQ ID NO: 5 / 22 (sense UUUUNAUCCUCACUCUAAA; antisense UUUAGAGUGAGGAUUAAAAUG; NM058 conjugate at sense position 5; modified_base 1..2 OTHER; 2'-methoxy and 5'-thiophosphate modified nucleotides; modified_base 3..4 OTHER; 2'-methoxy modified nucleotides; modified_base 5 OTHER; n is the synthetic nucleotide analog NM058 as described in the disclosure(e.g., NM058-1 (1N-(9-[(2S,5R)-5-{[bis(4-methoxyphenyl)(phenyl)methoxy]methyl}-3,4-dihydroxytetrahydrofuran-2-yl]-9H-purin-6-yl)benzamide)).; modified_base 6 OTHER; modified_base 1 OTHER; 2'-methoxy and 5'-thiovinylphosphonate modified nucleotide; modified_base 2 OTHER; 2'-fluoro and 5'-thiophosphate modified nucleotide; …)				53.02	62.93	87.35
RZ899053: siRNA, the sense strand with the NM058 conjugation at Position 6; SEQ ID NO: 6 / 22 (sense UUUUANUCCUCACUCUAAA; antisense UUUAGAGUGAGGAUUAAAAUG; NM058 conjugate at sense position 6; modified_base 1..2 OTHER; 2'-methoxy and 5'-thiophosphate modified nucleotides; modified_base 3..5 OTHER; 2'-methoxy modified nucleotides; modified_base 6 OTHER; n is the synthetic nucleotide analog NM058 as described in the disclosure(e.g., NM058-1 (1N-(9-[(2S,5R)-5-{[bis(4-methoxyphenyl)(phenyl)methoxy]methyl}-3,4-dihydroxytetrahydrofuran-2-yl]-9H-purin-6-yl)benzamide)).; modified_base 7..9 OTHE; modified_base 1 OTHER; 2'-methoxy and 5'-thiovinylphosphonate modified nucleotide; modified_base 2 OTHER; 2'-fluoro and 5'-thiophosphate modified nucleotide; …)				42.55	55.87	74.13
